Measured values reported in US20220016092A1, “METHODS FOR TREATING SYMPTOMS AND DISORDERS ASSOCIATED WITH LYSOSOMAL STORAGE DISEASES” (GENZYME CORPORATION, priority 2019, published 2022).

B1: agalsidase beta: historical control arm: patients treated with agalsidase beta (Fabrazyme) in a previously completed placebo-controlled phase 3 trial (protein, UniProt P06280 32-429, looked up)
Alpha-galactosidase A: LDNGLARTPTMGWLHWERFMCNLDCQEEPDSCISEKLFMEMAELMVSEGWKDAGYEYLCIDDCWMAPQRDSEGRLQADPQRFPHGIRQLANYVHSKGLKLGIYADVGNKTCAGFPGSFGYYDIDAQTFADWGVDLLKFDGCYCDSLENLADGYKHMSLALNRTGRSIVYSCEWPLYMWPFQKPNYTEIRQYCNHWRNFADIDDSWKSIKSILDWTSFNQERIVDVAGPGGWNDPDMLVIGNFGLSWNQQVTQMALWAIMAAPLFMSNDLRHISPQAKALLQDKDVIAINQDPLGKQGYQLRQGDNFEVWERPLSGLAWAVAMINRQEIGGPRSYTIAVASLGKGVACNPACFITQLLPVKRKLGFYEWTSRLRSHINPTGTVLLQLENTMQMSLKDLL
modifications: agalsidase beta
notes: historical control arm: patients treated with agalsidase beta (Fabrazyme) in a previously completed placebo-controlled phase 3 trial

Legend:
[1] = test system: GM3 expression in B16 mouse melanoma cells; experiment: GM3 fluorescent-linked immunosorbent assay (FLISA), B16 cells; format: cell-based; settings: 48 hours
From the text: (§1) Inhibition of glucosylceramide synthase activity can be measured with one or more assays. A first assay is a microsomal assay that directly measures the conversion of ceramide to glucosylceramide by HPLC. Microsomes are a source of glucosylceramide synthase activity in the microsomal assay. A second assay is a cell based, phenotypic assay that monitors cell surface expression of the downstream lipid GM3 by antibody mediated immunofluorescence. Specific protocols are provided below.
(§2) This is a phenotypic assay that measures GM3 expression in B16 mouse melanoma or C32 human melanoma cells following treatment with test compounds. Cell surface GM3 expression is determined by antibody mediated fluorescence.
(§3) Compounds are diluted in media and plated in 384 well plates in DMSO. B16 and C32 cells are assayed at densities of 20,000 cells/ml and 62,500 cells/ml, respectively, per well. Each titration curve contains 10 points that are assayed in duplicate on each test run. The plates are incubated for 48 hours at 37° C., 5% CO2, and are then washed once with TBS. Anti-GM3 antibody is added to each well and the plates are then incubated for an additional one hour at room temperature. Plates are subsequently washed twice and incubated for an additional hour with the labeled secondary antibody. Following the final incubation, the plates are washed twice and the fluorescence at λex=D640/20 nm and λem=657 nm is detected on a fluorescent reader.
(§4) The results of the microsomal assays are expressed as “GCS IC50”, which represents the concentration of the compound causing 50% inhibition of glucosylceramide synthase activity. The results of the cell-based assays are expressed as “GM3 B16 IC50” or “GM3 C32 IC50” for the B16 assay and the C32 assay, respectively. These values represent the concentration of the compound causing 50% inhibition of GM3 expression on the cell surface.

[2] = test system: GM3 expression in C32 human melanoma cells; experiment: GM3 fluorescent-linked immunosorbent assay (FLISA), C32 cells; format: cell-based; settings: 48 hours
From the text: as §1, §2, §3, §4

[3] = test system: GL-3, lyso-GL-3, GL-1 and GM3; settings: Fabry patients of the historical phase 3 trial (Eng et al. 2001), matched; after 156 weeks; cited from earlier work

Molecule	IC50 [1] [nM]	IC50 [2] [nM]	Plasma GL-3 levels [3] [µg/mL]
COCCOc1ccc(-c2ccc(C(C)(C)NC(=O)OC3CN4CCC3CC4)cc2)cc1 (stereo not drawn) [Compound 13, Quinuclidin-3-yl(2-(4′-(2-methoxyethoxy)-[1,1′-biphenyl]-4-yl)propan-2-yl)carbamate]	38.6	0.7	–
CC(C)(NC(=O)OC1CN2CCC1CC2)c1ccc(-c2ccc(OCCCC#N)cc2)cc1 (stereo not drawn) [Compound 22, Quinuclidin-3-yl(2-(4′-(3-cyanopropoxy)-[1,1′-biphenyl]-4-yl)propan-2-yl)carbamate]	86.5	3.2	–
CC(C)(NC(=O)OC1CN2CCC1CC2)c1csc(-c2ccc(F)cc2)c1 (stereo not drawn) [Compound 10, Quinuclidin-3-yl 2-(5-(4-fluorophenyl)thiophen-3-yl)propan-2-ylcarbamate]	21.3	2.2	–
CC(C)(NC(=O)O[C@@H]1CN2CCC1CC2)c1nc(-c2ccc(F)cc2)cs1 [Compound 12, (S)-quinuclidin-3-yl 2-(4-(4-fluorophenyl)thiazol-2-yl)propan-2-ylcarbamate]	87.8	3.7	–
O=C(NC1(c2ccc(-c3ccc(F)cc3F)cc2)CC1)O[C@@H]1CN2CCC1CC2 [Compound 8, (S)-1-azabicyclo[2.2.2]oct-3-yl[1-(2′,4′-difluorobiphenyl-4-yl)cyclopropyl]carbamate]	7.5	0.4	–
COCCCOc1ccc(-c2nc(C(C)(C)NC(=O)OC3CN4CCC3CC4)cs2)cc1 (stereo not drawn) [Compound 19, Quinuclidin-3-yl(2-(2-(4-(3-methoxypropoxy)phenyl)thiazol-4-yl)propan-2-yl)carbamate]	197	42.6	–
COCCCOc1ccc(-c2ccc(C(C)(C)NC(=O)OC3CN4CCC3CC4)cc2)cc1 (stereo not drawn) [Compound 16, Quinuclidin-3-yl(2-(4′-(3-methoxypropoxy)-[1,1′-biphenyl]-4-yl)propan-2-yl)carbamate]	66.6	1.6	–
CC(C)(NC(=O)O[C@@H]1CN2CCC1CC2)c1ccc(-c2ccccc2)cc1 [Compound 5, (S)-quinuclidin-3-yl 2-(biphenyl-4-yl)propan-2-ylcarbamate]	19.3	0.3	–
CC(C)(NC(=O)OC1CN2CCC1CC2)c1ccc(-c2ccc(CCO)cc2)cc1 (stereo not drawn) [Compound 18, Quinuclidin-3-yl(2-(4′-(2-hydroxyethyl)-[1,1′-biphenyl]-4-yl)propan-2-yl)carbamate]	656	22.3	–
CC(C)(NC(=O)O[C@@H]1CN2CCC1CC2)c1cc(-c2ccc(F)cc2)ns1 [Compound 11, (S)-quinuclidin-3-yl 2-(3-(4-fluorophenyl)isothiazol-5-yl)propan-2-ylcarbamate]	81.9	1.8	–
COCCOc1ccc(-c2ccc(C(C)(C)NC(=O)OC3CN4CCC3CC4)nc2)cc1 (stereo not drawn) [Compound 21, Quinuclidin-3-yl 2-(5-(4-(2-methoxyethoxy)phenyl)pyridin-2-yl)propan-2-ylcarbamate]	266	11.1	–
CC(C)(NC(=O)OC1CN2CCC1CC2)c1cccc(-c2ccc(F)cc2)c1 (stereo not drawn) [Compound 1, 1-azabicyclo[2.2.2]oct-3-yl[2-(4′-fluorobiphenyl-3-yl)propan-2-yl]carbamate]	15.6	2.1	–
CC(C)(NC(=O)OC1CN2CCC1CC2)c1ccc(-c2ccc(CO)cc2)cc1 (stereo not drawn) [Compound 17, Quinuclidin-3-yl(2-(4′-(hydroxymethyl)-[1,1′-biphenyl]-4-yl)propan-2-yl)carbamate]	879	21.6	–
COCCOc1cccc(-c2ccc(C(C)(C)NC(=O)O[C@@H]3CN4CCC3CC4)cc2)c1 [Compound 14, (S)-quinuclidin-3-yl(2-(3′-(2-methoxyethoxy)-[1,1′-biphenyl]-4-yl)propan-2-yl)carbamate]	110	5.3	–
CC(C)(NC(=O)OC1CN2CCC1CC2)c1cccc(-c2ccccc2)c1 (stereo not drawn) [Compound 4, 1-azabicyclo[2.2.2]oct-3-yl[2-(biphenyl-3-yl)propan-2-yl]carbamate]	11.6	0.8	–
COCCOc1ccc(-c2cccc(C(C)(C)NC(=O)OC3CN4CCC3CC4)c2)cc1 (stereo not drawn) [Compound 15, Quinuclidin-3-yl(2-(4′-(2-methoxyethoxy)-[1,1′-biphenyl]-3-yl)propan-2-yl)carbamate]	29.5	4.9	–
CC(C)(NC(=O)OC1CN2CCC1CC2)c1ccc(-c2ccc(OCC#N)cc2)cc1 (stereo not drawn) [Compound 23]	47.7	0.8	–
COc1ccc(-c2ccc(C3(NC(=O)OC4CN5CCC4CC5)CC3)cc2)cc1 (stereo not drawn) [Compound 9, 1-azabicyclo[2.2.2]oct-3-yl[1-(4′-methoxybiphenyl-4-yl)cyclopropyl]carbamate]	16.8	0.4	–
O=C(NC1(c2ccc(-c3ccccc3)cc2)CC1)OC1CN2CCC1CC2 (stereo not drawn) [Compound 6, Quinuclidin-3-yl 1-(biphenyl-4-yl)cyclopropylcarbamate]	18.1	0.6	–
O=C(NC1(c2ccc(-c3ccc(F)cc3)cc2)CC1)O[C@@H]1CN2CCC1CC2 [Compound 7, (S)-quinuclidin-3-yl 1-(4′-fluorobiphenyl-4-yl)cyclopropylcarbamate]	8.1	0.4	–
COCCOc1ccc(-c2nc(C(C)(C)NC(=O)OC3CN4CCC3CC4)cs2)cc1 (stereo not drawn) [Compound 20, Quinuclidin-3-yl(2-(2-(4-(2-methoxyethoxy)phenyl)thiazol-4-yl)propan-2-yl)carbamate]	106	19.8	–
COCCOc1ccc(-c2ccc(C(C)(C)NC(=O)O[C@@H]3CN4CCC3CC4)cc2)cc1 [Compound 3, (S)-quinuclidin-3-yl(2-(4′-(2-methoxyethoxy)-[1,1′-biphenyl]-4-yl)propan-2-yl)carbamate]	43.7	1.31	–
B1	–	–	4.44
